Measured values from ChEMBL document CHEMBL5331042, “Azole inhibitors of mushroom and human tyrosinases: Current advances and prospects of drug development for melanogenic dermatological disorders” (Eur J Med Chem, 2022).
One block for each compound: values may come before it. Peptide text beside a SMILES is read from it.

How the values were obtained:
[1] = biological target: T1, Tyrosinase (Homo sapiens, UniProt P14679); assay: Inhibition of human tyrosinase using L-DOPA as substrate incubated for 10 to 20 mins by MBTH dye based assay
T1 sequence (P14679 whole entry): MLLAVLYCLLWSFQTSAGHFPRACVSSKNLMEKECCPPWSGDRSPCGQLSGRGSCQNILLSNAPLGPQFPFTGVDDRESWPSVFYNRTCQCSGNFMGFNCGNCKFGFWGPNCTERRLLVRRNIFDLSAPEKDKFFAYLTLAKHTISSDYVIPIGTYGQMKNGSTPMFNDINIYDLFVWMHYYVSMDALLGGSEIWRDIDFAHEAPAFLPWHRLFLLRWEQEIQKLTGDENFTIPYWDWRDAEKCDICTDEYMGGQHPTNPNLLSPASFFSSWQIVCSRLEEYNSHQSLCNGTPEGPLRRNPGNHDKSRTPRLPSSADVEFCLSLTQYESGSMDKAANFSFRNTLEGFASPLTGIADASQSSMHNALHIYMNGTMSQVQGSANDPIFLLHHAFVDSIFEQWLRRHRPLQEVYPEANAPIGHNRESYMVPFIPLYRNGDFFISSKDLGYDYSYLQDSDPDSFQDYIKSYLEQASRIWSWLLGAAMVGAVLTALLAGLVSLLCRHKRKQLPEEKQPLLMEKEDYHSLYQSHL

[2] = biological target: T2, Mushroom tyrosinase (Agaricus bisporus, UniProt O42713+Q00024+C7FF04+C7FF05); assay: Inhibition of mushroom tyrosinase using L-DOPA as substrate preincubated for 10 mins followed by substrate addition and measured after 20 mins
[3] = biological target: T2, Mushroom tyrosinase; assay: Inhibition of mushroom tyrosinase using L-DOPA as substrate preincubated for 10 mins followed by substrate addition and measured after 20 mins by absorbance based analysis
[4] = Cytotoxicity against mouse B16-F10 cells assessed as inhibition of cell growth measured after 48 hrs by MTT assay; format: toxicity, cell-based
[5] = biological target: T2, Mushroom tyrosinase; assay: Inhibition of mushroom tyrosinase using L-DOPA as substrate preincubated for 20 mins followed by substrate addition by absorbance based analysis
[6] = biological target: T2, Mushroom tyrosinase; assay: Inhibition of mushroom tyrosinase using L-tyrosine as substrate preincubated for 20 mins followed by substrate addition by absorbance based analysis
[7] = biological target: T2, Mushroom tyrosinase; assay: Binding affinity to mushroom tyrosinase assessed as inhibition constant using L-DOPA as substrate preincubated for 10 mins followed by substrate addition and measured after 20 mins
[8] = biological target: T2, Mushroom tyrosinase; assay: Inhibition of mushroom tyrosinase
[9] = Cytotoxicity against mouse B16-F10 cells assessed as inhibition of cell growth upto 20 uM measured after 24 hrs by absorbance based assay relative to control; format: toxicity
[10] = biological target: Mushroom tyrosinase (Agaricus bisporus) (UniProt O42713+Q00024+C7FF04+C7FF05); assay: Inhibition of mushroom tyrosinase transfected in mouse B16-F10 cells at 25 uM using L-tyrosine as substrate relative to control; format: cell-based
[11] = Cytotoxicity against mouse B16-F10 cells assessed as inhibition of cell growth at 8 uM measured after 24 hrs by MTT assay relative to control; format: toxicity, cell-based
[12] = biological target: T2, Mushroom tyrosinase; assay: Inhibition of mushroom tyrosinase using L-DOPA as substrate preincubated for 10 mins followed by substrate addition by absorbance based analysis
[13] = biological target: T2, Mushroom tyrosinase; assay: Binding affinity to mushroom tyrosinase assessed as inhibition constant using L-DOPA as substrate preincubated for 10 mins followed by substrate addition by absorbance based analysis
[14] = biological target: T2, Mushroom tyrosinase; assay: Inhibition of mushroom tyrosinase incubated for 10 mins by spectrophotometric analysis
[15] = biological target: T2, Mushroom tyrosinase; assay: Binding affinity to mushroom tyrosinase assessed as inhibition constant incubated for 10 mins by spectrophotometric analysis
[16] = biological target: T1, Tyrosinase; assay: Inhibition of human His-tagged tyrosinase CD expressed in HEK293 cells assessed as inhibition of melanin production using L-DOPA as substrate; format: cell-based

IC50 [1]: 3.2 µM
SMILES: CC(C)(O)c1ccc(C(=O)Nc2nc(-c3ccc(O)cc3O)cs2)cc1

IC50 [1]: 5.6 µM
SMILES: CC(=O)Nc1nc(-c2ccc(O)cc2O)cs1

IC50 [1]: 93 µM
SMILES: CCCCCCc1ccc(O)c(C)c1O

IC50 [2]: 0.34 µM
SMILES: CCCCn1c(SCC(=O)Nc2ccc(Br)cc2)nnc1-c1ccccc1

IC50 [1]: 16 µM
SMILES: Oc1ccc(-c2csc(NC3CCCCC3)n2)c(O)c1

IC50 [1]: 1.1 µM
SMILES: CC(C)Nc1nc(-c2ccc(O)cc2O)cs1

IC50 [1]: 56 µM
SMILES: O=C(NC1CCCCC1)c1nc(-c2ccc(O)cc2O)cs1

IC50 [1]: > 1000 µM
SMILES: CCCC(=O)Nc1cnc(-c2cc(CCC)c(O)cc2O)s1

IC50 [1]: 5.7 µM
SMILES: CC(C)(C)C(=O)Nc1nc(-c2ccc(O)cc2O)cs1

IC50 [3]: 0.3 µM
SMILES: O=C1C=C(Cn2cc(COc3ccc4ccccc4c3)nn2)C(=O)C=C1O
IC50 at 48 h [4]: 67.5 µM

IC50 [5]: 0.56 µM | IC50 [6]: 0.25 µM
SMILES: Cc1c(NC(=O)Cn2cc(COc3ccc(/C=N/NC(N)=S)cc3)nn2)cccc1[N+](=O)[O-]

Ki [7]: 0.3 nM | IC50 [3]: 0.037 µM
SMILES: O=C1OC(c2ccccc2Br)=NC(=S)C1c1nn[nH]n1 (stereo unspecified)

IC50 [2]: 0.06 µM
SMILES: COc1ccccc1-n1c(SCC(=O)Nc2ccc(I)cc2)nnc1-c1ccccc1F

IC50 [8]: 4.7 µM | inhibition [10]: 55%
SMILES: O=C1/C(=C/c2ccc(O)cc2O)OC(=S)N1c1ccccc1
inhibition at 24 h, up to 20 µM [9]: ~55%

IC50 [1]: > 700 µM
SMILES: CCC(=O)Nc1nc(-c2ccc(O)cc2F)cs1

IC50 [1]: > 200 µM
SMILES: OCCc1ccc(O)cc1O

SMILES: COc1ccccc1-n1c(SCC(=O)Nc2ccc(Br)cc2)nnc1-c1ccccc1
IC50 [2]: 0.0048 µM | Ki [7]: 7 nM

IC50 [1]: > 1000 µM
SMILES: Cc1sc(NC(=O)C2CCCCC2)nc1-c1ccc(O)cc1O

IC50 [8]: 1.5 µM
SMILES: CC(C)[C@H]1C(=O)N2CCC[C@H]2C(=O)N[C@@H](Cc2ccc(O)cc2)C(=O)N2CCC[C@H]2c2cn1nn2

SMILES: NC(=S)N/N=C/c1ccc(OCc2cn(CC(=O)Nc3ccc(F)cc3)nn2)cc1
IC50 [5]: 0.6 µM | IC50 [6]: 0.14 µM

IC50 [1]: > 200 µM
SMILES: CCCCc1ccc(O)c(C)c1O

IC50 [8]: 1.6 µM
SMILES: CC(C)[C@H]1C(=O)N2CCC[C@H]2c2cn(nn2)[C@@H](Cc2ccc(O)cc2)C(=O)N2CCC[C@H]2c2cn1nn2

IC50 [8]: 11.18 µM | inhibition [10]: 65%
SMILES: O=C1/C(=C/c2ccccc2O)OC(=S)N1c1ccccc1
inhibition at 24 h, up to 20 µM [9]: ~65%

IC50 [5]: 0.17 µM | IC50 [6]: 0.25 µM
SMILES: NC(=S)N/N=C/c1ccc(OCc2cn(CC(=O)NCc3ccccc3)nn2)cc1
inhibition at 24 h, 8 µM [11]: 39.8%

IC50 [5]: 0.84 µM | IC50 [6]: 0.22 µM
SMILES: COc1cccc(NC(=O)Cn2cc(COc3ccc(/C=N/NC(N)=S)cc3)nn2)c1

SMILES: COc1ccccc1-n1c(SCC(=O)Nc2ccc(F)cc2)nnc1-c1ccccc1
IC50 [2]: 0.08 µM

IC50 [5]: 0.42 µM
SMILES: NC(=S)N/N=C/c1ccc(OCc2cn(CC(=O)Nc3cccc(Cl)c3Cl)nn2)cc1

IC50 [1]: 6.2 µM
SMILES: CCCNc1nc(-c2ccc(O)cc2O)cs1

IC50 [12]: 0.036 µM | Ki [13]: 0.038 µM
SMILES: COc1cc(/C=N/c2nnc(S)s2)ccc1O

IC50 [2]: 0.21 µM
SMILES: CCCCn1c(SCC(=O)Nc2ccc(I)cc2)nnc1-c1ccccc1

IC50 [5]: 0.14 µM
SMILES: NC(=S)N/N=C/c1ccc(OCc2cn(CC(=O)Nc3ccc(Cl)cc3)nn2)cc1
inhibition at 24 h, 8 µM [11]: 69.6%

IC50 [1]: 19 µM
SMILES: Oc1ccc(-c2csc(Nc3ncccn3)n2)cc1

IC50 [1]: 40 µM
SMILES: CN(c1nc(-c2ccc(O)cc2O)cs1)C1CCCCC1

IC50 [12]: 0.00458 µM | Ki [13]: 0.0086 µM
SMILES: COc1cc(C2CC(c3cc4ccccc4oc3=O)=NN2c2nc(-c3ccc(Br)cc3)cs2)ccc1OCc1ccccc1 (stereo unspecified)

IC50 [2]: 0.17 µM
SMILES: COc1ccccc1-n1c(SCC(=O)Nc2ccc(F)cc2)nnc1-c1ccccc1F

IC50 [14]: 0.00166 µM | Ki [15]: 0.012 µM
SMILES: CCCCCn1nc(-c2ccccc2)n(CC(=O)NNC(=O)Nc2ccccc2C(F)(F)F)c1=O

IC50 [2]: 0.15 µM
SMILES: COc1ccccc1-n1c(SCC(=O)Nc2ccc(Br)cc2)nnc1-c1ccccc1F

IC50 [5]: 0.5 µM
SMILES: NC(=S)N/N=C/c1ccc(OCc2cn(CC(=O)Nc3cccc(Cl)c3)nn2)cc1

IC50 [2]: 0.54 µM
SMILES: COc1ccccc1-n1c(SCC(=O)Nc2ccccc2)nnc1-c1ccccc1F

IC50 [1]: > 700 µM
SMILES: O=C(Nc1cccc(-c2ccc(O)cc2O)c1)C1CCCCC1

IC50 [5]: 0.43 µM | IC50 [6]: 0.83 µM
SMILES: NC(=S)N/N=C/c1ccc(OCc2cn(CC(=O)NCc3ccc(F)cc3)nn2)cc1

IC50 [1]: > 700 µM
SMILES: CC(=O)Nc1nc(-c2ccc(O)cc2O)c[nH]1

IC50 [16]: 15 µM
SMILES: Oc1ccc(O)cc1 [HYDROQUINONE]

SMILES: O=c1cc(CO)occ1O [KOJIC ACID]
inhibition at 24 h, 8 µM [11]: 94%

IC50 [3]: 0.06 µM
SMILES: O=C1C=C(Cn2cc(COc3cccc4ccccc34)nn2)C(=O)C=C1O
IC50 at 48 h [4]: 65 µM

IC50 [2]: 0.65 µM
SMILES: COc1ccccc1-n1c(SCC(=O)Nc2ccc(I)cc2)nnc1-c1ccccc1

IC50 [1]: > 1000 µM
SMILES: CN(C(=O)C1CCCCC1)c1nc(-c2ccc(O)cc2O)cs1

IC50 [5]: 0.26 µM
SMILES: Cc1c(Cl)cccc1NC(=O)Cn1cc(COc2ccc(/C=N/NC(N)=S)cc2)nn1

IC50 [1]: 3.5 µM
SMILES: CC(=O)/C=C/Nc1nc(-c2ccc(O)cc2O)cs1

IC50 [5]: 0.21 µM
SMILES: NC(=S)N/N=C/c1ccc(OCc2cn(CC(=O)Nc3cccc(Br)c3)nn2)cc1
inhibition at 24 h, 8 µM [11]: ≤ 70%

IC50 [8]: 0.5 µM
SMILES: CC(C)[C@@H]1NC(=O)[C@@H]2CCCN2C(=O)[C@H](Cc2ccc(O)cc2)n2cc(nn2)[C@@H]2CCCN2C1=O

IC50 [5]: 0.52 µM | IC50 [6]: 0.12 µM
SMILES: COc1ccc(NC(=O)Cn2cc(COc3ccc(/C=N/NC(N)=S)cc3)nn2)cc1

IC50 [1]: 3.2 µM
SMILES: O=C(NC1CCCCC1)c1csc(-c2ccc(O)cc2O)n1

SMILES: CCCCCn1nc(-c2ccccc2)n(CC(=O)NNC(=S)Nc2ccccc2C(F)(F)F)c1=O
IC50 [14]: 5.62 µM | Ki [15]: 0.122 µM

IC50 [2]: 0.21 µM
SMILES: CCCCn1c(SCC(=O)Nc2ccccc2)nnc1-c1ccccc1

IC50 [2]: 0.02 µM
SMILES: COc1ccccc1-n1c(SCC(=O)Nc2ccccc2)nnc1-c1ccccc1

IC50 [1]: 5.7 µM
SMILES: OCc1ccc(Nc2nc(-c3ccc(O)cc3O)cs2)cc1

IC50 [5]: 2.18 µM | IC50 [6]: 0.79 µM
SMILES: NC(=S)N/N=C/c1ccc(OCc2cn(CC(=O)Nc3ccccc3)nn2)cc1

IC50 [16]: 13.5 µM
SMILES: CCCCc1ccc(O)cc1O [RUCINOL]

IC50 [1]: 1.4 µM | IC50 [16]: 0.9 µM
SMILES: CC(C)C(=O)Nc1nc(-c2ccc(O)cc2O)cs1

IC50 [16]: 1200 µM
SMILES: C[C@@H](O)CCc1ccc(O)cc1

IC50 [2]: 0.37 µM
SMILES: CCCCn1c(SCC(=O)Nc2ccc(F)cc2)nnc1-c1ccccc1

IC50 [5]: 0.68 µM
SMILES: NC(=S)N/N=C/c1ccc(OCc2cn(CC(=O)Nc3ccc([N+](=O)[O-])cc3)nn2)cc1

IC50 [8]: 0.6 µM
SMILES: CC(C)[C@@H]1NC(=O)[C@@H]2CCCN2C(=O)[C@H](Cc2ccc(O)cc2)NC(=O)[C@@H]2CCCN2C1=O (cyclo(PVPY))

IC50 [12]: 0.25 µM | Ki [13]: 0.075 µM
SMILES: Oc1ccc(/C=N/c2nnc(S)s2)c(O)c1

IC50 [14]: > 20 µM
SMILES: CCCCCn1nc(-c2ccccc2)n(CC(=O)NNC(=S)Nc2cccc(Br)c2)c1=O

IC50 [14]: > 20 µM
SMILES: CCCCCn1nc(-c2ccccc2)n(CC(=O)NNC(=O)Nc2cccc(Cl)c2)c1=O
